Measured values: patent US4399065A, “D-Phenylalanyl-L-prolyl-L-arginine aldehyde sulfate and process for the preparation thereof” (Patentbureau Danubia, priority 1981, dated 1983)
Values joined by “and” are separate entries in the source; they are usually repeats but may differ in a detail not shown here. Equal entries are not always repeated. Blank lines part the entries; values can stand above or below the compound they belong to.

What was measured:
[1] = Stability of peptide aldehyde salts/derivatives in aqueous solution and in solid form; type: physicochemical
[2] = tested on: thrombin time in the whole blood; assay: In vivo trial, dog: dose required to prolong thrombin time in the whole blood 1.5 to 2.5 fold; settings: thrombin time in whole blood prolonged 1.5 to 2.5 fold
From the text: (§1) ^a The therapeutic effect is characterized by the dose required to […]

Acute toxicity in mice = type: in vivo; settings: mouse, in vivo
[3] = tested on: thrombin time in the whole blood; assay: In vivo trial, rabbit: dose required to prolong thrombin time in the whole blood 1.5 to 2.5 fold; settings: thrombin time in whole blood prolonged 1.5 to 2.5 fold
From the text: as §1

thrombin = settings: known from Hungarian Pat. No. 169,870 / Belgian Pat. No. 880,844; cited from earlier work
[4] = target: T1, U.S. Standard Human Thrombin (Homo sapiens, UniProt P00734); assay: Antithrombin activity (thrombin time) of peptide solutions stored in isotonic salt solution, fibrinogen system; settings: for Relative activity after 0 days: 10 mg/ml, 100 = fivefold relative thrombin time at 3.5 × 10^-7 M
Method: In the course of our tests the peptides were dissolved in concentrations of 10 mg/ml, stored at 5° C., and the ensuing change in antithrombin activity registered for 180 days. The potency was assayed in a system containing the following components:
0.2 ml of 0.5 percent bovine fibrinogen in a 0.9 percent solution of sodium chloride,
0.1 ml of tris(hydroxymethyl)-amino-methane hydrochloride--hydrochloric acid buffer (pH 7.2) containing the peptide solution
0.1 ml of U.S. Standard Human Thrombin (NIH, Bethesda, Md., USA), 10 Unit/ml solution.
The activity of the tripeptide aldehyde solution was arbitrarily set up as 100, if the reaction mixture induced a fivefold relative thrombin time at a final concentration of 3.5×10^-7 M (in the case of the tripeptide aldehyde sulfate at 0.175 μg/ml).

[5] = target: T1, U.S. Standard Human Thrombin; assay: Antithrombin activity (thrombin time) in human plasma; type: biochemical; set-up: U.S. Standard Human Thrombin; purchased NIH, Bethesda, Md., USA; settings: for amount required for a twofold thrombin time increase relative to the tripeptide aldehyde sulfate: human plasma; for IC (2-fold thrombin time): pH 7.2, read-out: Amount of peptide required to increase thrombin time twofold immediately following dissolution of the peptide; for Relative activity: sulfate = 100
Method: In order to simulate physiological conditions the antithrombin activity of the tripeptide aldehyde salts as well as that of the carbamic acid derivatives was tested also on human plasma in the following system:
0.2 ml of human citrate plasma,
0.1 ml of tris(hydroxymethyl)-amino-methane hydrochloride--hydrochloric acid buffer solution (pH 7.2) containing the peptide solution, and
0.1 ml of U.S. Standard Human Thrombin (NIH, Bethesda Md., USA), 10 Units/ml solution.

mice = assay: Acute toxicity in mice; type: in vivo; settings: acute toxicity
[6] = Acute toxicity at intravenous infusion in the rabbit; settings: in vivo
[7] = tested on: thrombin time in the whole blood; assay: In vivo trial of the tripeptide aldehyde derivatives, summary statements; set-up: species or system rabbit, dog; settings: for oral dose at which therapeutic effect may be achieved: species not given
From the text: as §1

Solubility = type: physicochemical
[8] = cited from earlier work
[9] = ip, mice, i.p., read-out: LD50 i.p.
[10] = iv, mice, i.v. bolus, read-out: LD50 i.v. bolus
[11] = po, mice, p.o., read-out: LD50 p.o.

Compound: CC(=O)O.N=C(N)NCCC[C@@H](C=O)NC(=O)[C@@H]1CCCN1C(=O)[C@H](N)Cc1ccccc1 [D-Phe-Pro-Arg-H.2 CH3 COOH, D-phenylalanyl-L-prolyl-L-arginine aldehyde acetate]
- antithrombin potency upon standing in aqueous solution [1]: varying and rapidly decreasing
- Dose required for therapeutic effect, p.o., dog [2]: 100 mg/kg
- LD50 (Acute toxicity in mice; [9]): 38 mg/kg
- LD50 (Acute toxicity in mice; [10]): 9 mg/kg
- LD50 (Acute toxicity in mice; [11]): 960 mg/kg
- Dose required for therapeutic effect, p.o., rabbit [3]: 100 mg/kg
- thrombin inhibition (thrombin): potent thrombin inhibitors
- activity starting to decrease (in words) ([4]; isotonic salt solution, 5° C.): already after several days
- amount required for a twofold thrombin time increase relative to the tripeptide aldehyde sulfate [5]: manifold
- IC (2-fold thrombin time) [5]: 0.065 to 0.14 µg/mL

Compound: CC(=O)O.Cl.N=C(N)NCCC[C@@H](C=O)NC(=O)[C@@H]1CCCN1C(=O)[C@H](N)Cc1ccccc1 [D-Phe-Pro-Arg-H.2HCl, D-phenylalanyl-L-prolyl-L-arginine aldehyde acetate and hydrochloride]
- antithrombin potency upon standing in aqueous solution [1]: varying and rapidly decreasing
- Dose required for therapeutic effect, p.o., dog [2]: 100 mg/kg
- activity starting to decrease after ([4]; isotonic salt solution, 5° C.): > 5 days
- amount required for a twofold thrombin time increase relative to the tripeptide aldehyde sulfate [5]: manifold
- IC (2-fold thrombin time) [5]: 0.06 to 0.13 µg/mL

Compound: N=C(N)NCCC[C@@H](C=O)NC(=O)[C@@H]1CCCN1C(=O)[C@H](N)Cc1ccccc1.O=S(=O)(O)O [D-Phe-Pro-Arg-H.H2 SO4, D-Phenylalanyl-L-prolyl-L-arginine aldehyde sulfate]
- Dose required for therapeutic effect, i.v. infusion, dog [2]: 0.5 mg/kg/h
- Dose required for therapeutic effect, p.o., dog [2]: 25 mg/kg
- Dose required for therapeutic effect, s.c., dog [2]: 6.0 mg/kg
- LD50 (Acute toxicity in mice; [9]): 230 mg/kg
- LD50 (Acute toxicity in mice; [10]): 45 mg/kg
- LD50 (Acute toxicity in mice; [11]): > 2000 mg/kg
- LD50 (Acute toxicity in mice; po, oral administration, read-out: acute toxicity at oral administration): 2000 mg/kg
- LD50 (Acute toxicity in mice; sc, mice, s.c., read-out: LD50 s.c.): 1800 mg/kg
- toxicity data compared with the acetate and the carbamic acid derivative (mice): more favourable than those of either the acetate or the carbamic acid derivative
- Dose required for therapeutic effect, i.v. infusion, rabbit [3]: 1.0 mg/kg/h
- Dose required for therapeutic effect, p.o., rabbit [3]: 25 mg/kg
- Dose required for therapeutic effect, s.c., rabbit [3]: 6.0 mg/kg
- LD50 [6]: 58 mg/kg
- antithrombin potency in vivo ([7]; in vivo): significant antithrombin potency in vivo
- efficacy at intravenous and subcutaneous application ([7]; intravenous and subcutaneous, compared with heparin): in the range of that of heparin
- oral dose at which therapeutic effect may be achieved [7]: 25 mg/kg
- Relative activity after 0 days ([4]; isotonic salt solution, 5° C.): 100
- retaining its antithrombin activity ([4]; isotonic salt solution, 5° C.): ≥ 90 days
- IC (5-fold thrombin time) ([4]; pH 7.2, read-out: final concentration inducing a fivefold relative thrombin time (activity set up as 100)): 0.35 µM and 0.175 µg/mL
- stable in aqueous medium ([4]; prolonged stability trials, aqueous medium): ≥ 180 days
- failed to lose activity in solid form ([4]; solid form): ≥ 6 months
- Relative activity ([5]; human citrate plasma): 100
- IC (2-fold thrombin time) [5]: 0.02 µg/mL

Compound: N=C(NCCC[C@@H](C=O)NC(=O)[C@@H]1CCCN1C(=O)[C@H](N)Cc1ccccc1)NC(=O)O [D-Phe-Pro-Arg/COOH/-H, D-phenylalanyl-L-prolyl-N^G -carboxy-L-arginine aldehyde]
- potency after several days ([1]; aqueous buffer solution, after several days): significant reduction in potency
- activity after several months in solid form ([1]; solid form, after several months): loss of original activity even in solid form
- Dose required for therapeutic effect, i.v. infusion, dog [2]: 3.0 mg/kg/h
- Dose required for therapeutic effect, p.o., dog [2]: 50 mg/kg
- Dose required for therapeutic effect, s.c., dog [2]: 6.0 mg/kg
- LD50 (Acute toxicity in mice; [11]): 1200 mg/kg
- Dose required for therapeutic effect, p.o., rabbit [3]: 50 mg/kg
- Dose required for therapeutic effect, s.c., rabbit [3]: 10.0 mg/kg
- thrombin inhibition (thrombin): potent thrombin inhibitors
- oral dose at which therapeutic effect may be achieved [7]: 50 mg/kg
- Relative activity after 0 days ([4]; isotonic salt solution, 5° C.): 100
- activity starting to decrease (in words) ([4]; isotonic salt solution, 5° C.): already after several days
- solubility (Solubility): poor solubility
- Relative activity ([5]; human citrate plasma): 45
- amount required for a twofold thrombin time increase relative to the tripeptide aldehyde sulfate [5]: twofold
- IC (2-fold thrombin time) [5]: 0.042 µg/mL

Compound: N=C(N)NCCC[C@@H](C=O)NC(=O)[C@@H]1CCCN1C(=O)[C@H](N)Cc1ccccc1 [citrate]
- activity starting to decrease (in words) ([4]; isotonic salt solution, 5° C.): already after several days

Compound: N=C(N)NCCC[C@@H](C=O)NC(=O)[C@@H]1CCCN1C(=O)[C@H](N)Cc1ccccc1 [tosylate]
- change of antithrombin activity compared with the acetate ([4]; isotonic salt solution, Table 1 footnote d): changing similarly to that of the acetate

- Amount of peptide required to increase thrombin time twofold immediately following dissolution of the peptide ([5]; human citrate plasma, pH 7.2, amount in the reaction mixture): 0.105 µg/mL
- Relative activity ([5]; human citrate plasma): 19
Compound: Heparin
- Dose required for therapeutic effect, i.v. infusion, dog [2]: 0.5 mg/kg/h
- Dose required for therapeutic effect, s.c., dog [2]: 2.0 mg/kg
- Dose required for therapeutic effect, i.v. infusion, rabbit [3]: 0.6 mg/kg/h
- Dose required for therapeutic effect, s.c., rabbit [3]: 5.0 mg/kg
- activity given orally ([8]; oral): practically inactive at oral application
- time until effect may be registered (in words) ([8]; primarily i.v. infusion): rapidly, within a short period of time
